These results are taken from patent US11952349B2, “Anti-cancer nuclear hormone receptor-targeting compounds” (Nuvation Bio Inc., priority 2019, dated 2024).

SMILES strings stand for the structures. Like-named read-outs stand apart in the source and are kept apart here.

One assay concerns the target Human recombinant PARP2 (Homo sapiens, UniProt Q9UGN5). The experiment in a line: RBC HotSpot PARP2 assay (radioisotope-based filter binding). The assay is classed as biochemical. The procedure: (§1) The following methods are for evaluating the in vitro biology properties of the test articles. • a. RBC HotSpot Poly(ADP-ribose) Polymerases 1 (PARP1) and Poly(ADP-ribose) Polymerases 2 (PARP2) Assays: The assay was conducted at Reaction Biology Corporation (RBC; Malvern, PA). The assay principle is radioisotope-based filter binding assay where incorporation of radioisotope-labeled NAD^+ into the substrate captured on filter is detected after washout free NAD^+. Data were analyzed using Excel and GraphPad Prism software for IC50 curve fits. Each assay was conducted with PJ34 as a positive control. PARP1 assay: Human recombinant PARP1 at a final concentration of 2.5 nM was combined with histone H4 (20 μM) and test articles at various concentrations in reaction buffer (50 mM Tris-HCL, pH 8.0, 50 mM NaCl, 10 mM MgCl2, 1 mM DTT, 1% DMSO, and 20 μg/mL activated DNA). The solution was inoculated for 20 min at room temperature and the reaction initiated by adding [adenylate-^32P]-Nicotinamide Adenine Dinucleotide, ^32P-NAD^+ at a final concentration of 10 μM. After incubation for 2 hrs at room temperature, the reaction mixture was filtered and washed with 0.75% phosphoric acid for radioactivity detection. • ii. PARP2 assay: Human recombinant PARP2 at a final concentration of 2.5 nM was combined with histone H3 (20 μM) and test articles at various concentrations in reaction buffer (50 mM Tris-HCL, pH 8.0, 50 mM NaCl, 10 mM MgCl2, 1 mM DTT, 1% DMSO, and 20 μg/mL activated DNA). The solution was inoculated for 20 min at room temperature and the reaction was initiated by adding [adenylate-^32P]-Nicotinamide Adenine Dinucleotide, ^32P-NAD^+ at a final concentration of 10 μM. After incubation for 2 hrs at room temperature, the reaction mixture was filtered and washed with 0.75% phosphoric acid for radioactivity detection. • b. AR binding assay: AR in LNCaP cytosol was used for determining the binding affinity of test articles and the reference compound—progesterone (Sigma, Cat: E2785, St. Louis, MO). IC50 s were determined using 8 concentrations/compound. Cytosol is plated at 200 μg/well (100 μL) into a 96-well conical polypropylene plate (Agilent, Cat: 5042-1385, Santa Clara, CA) and mixed with 3 μL of test compound. After adding 100 μL of ^3H-methyltrienolone (PerkinElmer, Cat: NET590250UC, San Jose, CA), the plate was sealed and shaken at 300 rpm at 4° C. for 24 hours. Post incubation, 100 μL of radioligand adsorption buffer containing 10 mM Tris-HCl, pH 7.4; 1.5 mM EDTA; 1 mM DTT; 0.25% charcoal; 0.0025% dextran was added to individual wells. Plate was shaken for 15 min at 4° C. followed by centrifugation at 3000 rpm for 30 min at 4° C. 150 μL of supernatant is transferred into scint-tube (PerkinElmer, Cat: 6000192) and mixed with 2 mL of Ultima Gold Cocktail (PerkinElmer, Cat: 6013329). Radioactivity is counted using a TriCarb 2910 TR scintillation counter (PerkinElmer). Inhibition of the radioactivity by test articles was calculated using the equation below: % Inhibition=(1−(Assay well−Average_LC)/(Average_HC−Average_LC))×100%. • IC50 values (Table 6) were calculated and graphed using the model “log(inhibitor) vs. response—Variable slope” included in GraphPad Prism 5 (San Diego, CA). The Ki values were further calculated using the equation below where [L] is the radioligand concentration (1 nM) used in this study. Kd value was 0.332 nM. Ki=IC50/(1+[L]/Kd) • c. AR transactivation: Human AR cloned into a CMV vector backbone is used for the transactivation study. HEK-293 cells are plated at 80,000 cells per well of a 24 well plate in DME+5% csFBS. Twenty four hours later, the cells are transfected using Lipofectamine (Invitrogen, Carlsbad, CA) with 0.25 μg GRE-LUC, 0.01 μg CMV-LUC (renilla luciferase) and 25 ng of the AR in OPTIMEM medium. The cells are treated 24 hrs after transfection with various ligands (10^−12 to 10^−5 M final concentrations) and luciferase assay performed 48 hours after transfection. […]

A further assay concerns the target Human recombinant PARP1 (Homo sapiens, UniProt P09874). Briefly: RBC HotSpot PARP1 assay (radioisotope-based filter binding). The assay is classed as biochemical. The procedure:
as §1

The subject of a further assay is LNCap cells. The experiment in a line: Cell viability assay (CellTiterGlo, 6 days) LNCap. Conditions: Homo sapiens, 144 h. Format: cell-based. As to the method:
(§2) Cell viability assay: LNCap, 22Rv1, and T47D cells were seeded at a density of 1500-2000 cells/well in 96 well plates, and a ‘T0’ (timepoint 0) was included along with the assay plate. The plates were then incubated at 37° C., 5% CO2 in a cell culture incubator overnight. On the next day, the ‘T0’ plate was assayed using CellTiterGlo (Promega, Inc) according to the manufacturer's instructions. The appropriate compounds were diluted in DMSO and added to the assay plate (final DMSO concentration of 0.2%) on the next day. The assay plates were incubated for 6 days at 37° C., 5% CO2. After the incubation period, the plates were assayed using CellTiterGlo (Promega, Inc) according to the manufacturer's instructions and luminescence was read on the EnVision plate reader. Inhibition the tested compounds was determined by the following formula: Inhibition rate (%)=(1−(RLU compound−RLU day0)/(RLU control−RLU day0))*100%. GraphPadPrism was used to analyze the data and determine absolute IC50 values.
(Cellular ATP, detected with luciferase, serves as a proxy for viable cell number.)

A further assay deals with 22Rv1 cells. Briefly: Cell viability assay (CellTiterGlo, 6 days) 22Rv1. Format: cell-based. The note with it: Homo sapiens, 22Rv1, 144 h, read-out: 22RV1. As to the method: as §2

Human recombinant PARP2, sequence (Q9UGN5 whole entry): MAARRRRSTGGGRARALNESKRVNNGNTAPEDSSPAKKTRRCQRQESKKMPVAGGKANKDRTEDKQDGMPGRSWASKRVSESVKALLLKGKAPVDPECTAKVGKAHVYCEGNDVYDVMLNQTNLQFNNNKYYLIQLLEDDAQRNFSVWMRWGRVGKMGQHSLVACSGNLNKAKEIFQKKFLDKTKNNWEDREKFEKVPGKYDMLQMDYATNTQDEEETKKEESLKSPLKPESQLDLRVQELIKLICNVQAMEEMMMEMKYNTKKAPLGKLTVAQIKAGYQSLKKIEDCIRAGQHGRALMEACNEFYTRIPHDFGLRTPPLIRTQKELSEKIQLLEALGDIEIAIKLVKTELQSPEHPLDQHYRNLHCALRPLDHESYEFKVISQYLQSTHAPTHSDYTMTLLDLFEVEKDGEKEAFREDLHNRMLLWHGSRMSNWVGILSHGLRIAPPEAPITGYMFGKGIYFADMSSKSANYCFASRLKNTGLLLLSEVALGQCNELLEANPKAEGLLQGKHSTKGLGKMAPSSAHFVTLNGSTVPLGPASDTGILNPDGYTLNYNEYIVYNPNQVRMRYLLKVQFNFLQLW
Human recombinant PARP1, sequence (P09874 whole entry): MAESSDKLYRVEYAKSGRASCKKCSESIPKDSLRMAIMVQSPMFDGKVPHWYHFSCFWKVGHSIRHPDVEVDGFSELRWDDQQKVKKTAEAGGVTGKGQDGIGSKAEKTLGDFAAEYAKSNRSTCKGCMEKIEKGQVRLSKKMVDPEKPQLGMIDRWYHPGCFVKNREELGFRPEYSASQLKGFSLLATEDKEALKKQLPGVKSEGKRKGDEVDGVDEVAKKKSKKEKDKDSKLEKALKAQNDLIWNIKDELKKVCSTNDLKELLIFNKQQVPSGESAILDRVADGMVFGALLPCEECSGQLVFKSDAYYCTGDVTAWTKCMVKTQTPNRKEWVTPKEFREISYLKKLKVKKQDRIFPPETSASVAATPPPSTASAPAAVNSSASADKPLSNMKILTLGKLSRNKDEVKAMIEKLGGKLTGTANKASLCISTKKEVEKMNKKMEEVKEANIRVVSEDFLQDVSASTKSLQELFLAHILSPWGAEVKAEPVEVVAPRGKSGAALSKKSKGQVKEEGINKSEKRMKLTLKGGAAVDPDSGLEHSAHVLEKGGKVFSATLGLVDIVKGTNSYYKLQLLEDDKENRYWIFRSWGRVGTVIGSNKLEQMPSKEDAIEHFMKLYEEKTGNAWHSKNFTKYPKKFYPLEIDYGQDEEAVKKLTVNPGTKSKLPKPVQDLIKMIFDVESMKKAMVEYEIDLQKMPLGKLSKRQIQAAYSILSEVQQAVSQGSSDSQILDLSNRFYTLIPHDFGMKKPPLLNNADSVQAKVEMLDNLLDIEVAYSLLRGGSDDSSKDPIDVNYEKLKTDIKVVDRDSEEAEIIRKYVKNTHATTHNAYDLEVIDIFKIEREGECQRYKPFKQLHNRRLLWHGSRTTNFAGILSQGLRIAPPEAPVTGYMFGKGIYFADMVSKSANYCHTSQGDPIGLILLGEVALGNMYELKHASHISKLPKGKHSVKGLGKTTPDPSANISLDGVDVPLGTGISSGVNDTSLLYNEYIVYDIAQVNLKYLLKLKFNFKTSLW

On to `C[C@@H]1C[C@@]2(C)[C@@H](CC[C@@H]3[C@@H]2CC[C@]2(C)[C@@H](OCCCCCC(=O)N4CCN(C(=O)c5cc(Cc6n[nH]c(=O)c7ccccc67)ccc5F)CC4)CC[C@@H]32)CC1=O` [Compound 1402, 4-(4-fluoro-3-(4-(6-((2R,5S,8R,9S,10S,13S,14S,17S)-2,10,13-trimethyl-3-oxohexadecahydro-1H-cyclopenta[a]phenanthren-17-yloxy)hexanoyl)piperazine-1-carbonyl)benzyl)phthalazin-1(2H)-one], for which the IC50 was 1 to 10 nM on Human recombinant PARP2 (Table 9, read-out: PARP2) and 10 to 100 nM at Human recombinant PARP1 (Table 9, read-out: PARP1).
Consider `C[C@]12CC[C@H]3[C@@H](CCC4=CC(=O)CC[C@@]43C)[C@@H]1CC[C@@H]2C(=O)COCCCCCC(=O)NCCOCCOCC(=O)N1CCN(C(=O)c2cc(Cc3n[nH]c(=O)c4ccccc34)ccc2F)CC1` [Compound 1392], for which the IC50 on Human recombinant PARP2 (Table 9, read-out: PARP2) is less than 1 nM; on Human recombinant PARP1 (Table 9, read-out: PARP1) it was 1 to 10 nM; with LNCap cells (Table 8), 1000 to 10000 nM.
On to `C[C@]12C[C@H](CCCCCC(=O)N3CCN(C(=O)c4cc(Cc5n[nH]c(=O)c6ccccc56)ccc4F)CC3)C3=C4CCC(=O)C=C4CC[C@H]3[C@@H]1CCC2=O` [Compound 1370, (8S,11S,13S,14S)-11-(6-(4-(2-fluoro-5-((4-oxo-3,4-dihydrophthalazin-1-yl)methyl)benzoyl)piperazin-1-yl)-6-oxohexyl)-13-methyl-7,8,11,12,13,14,15,16-octahydro-1H-cyclopenta[a]phenanthrene-3,17(2H,6H)-dione], for which the IC50 is 100 to 1000 nM with 22Rv1 cells, less than 1 nM on Human recombinant PARP2, less than 1 nM on Human recombinant PARP1 and 100 to 1000 nM in the assay on LNCap cells (Table 7).
